Measurements as given in ChEMBL document CHEMBL4507267 (2021).

How the values were obtained:
[1] = target: Aurora kinase A (Homo sapiens) (UniProt O14965); conditions: Compound concentration 1000.0 nM
[2] = target: Ribosomal protein S6 kinase alpha-2 (Homo sapiens) (UniProt Q15349); conditions: Compound concentration 1000.0 nM
[3] = target: Tyrosine-protein kinase Yes (Homo sapiens) (UniProt P07947); conditions: Compound concentration 1000.0 nM
[4] = target: Eukaryotic translation initiation factor 2-alpha kinase 1 (Homo sapiens) (UniProt Q9BQI3); conditions: Compound concentration 1000.0 nM
[5] = target: Mitogen-activated protein kinase kinase kinase 3 (Homo sapiens) (UniProt Q99759); conditions: Compound concentration 1000.0 nM
[6] = target: Casein kinase I isoform gamma-2 (Homo sapiens) (UniProt P78368); conditions: Compound concentration 1000.0 nM
[7] = target: Serine/threonine-protein kinase Sgk3 (Homo sapiens) (UniProt Q96BR1); conditions: Compound concentration 1000.0 nM
[8] = target: Bone morphogenetic protein receptor type-1A (Homo sapiens) (UniProt P36894); conditions: Compound concentration 1000.0 nM
[9] = target: Cyclin-dependent kinase 18 (Homo sapiens) (UniProt Q07002); conditions: Compound concentration 1000.0 nM
[10] = target: Protein-tyrosine kinase 2-beta (Homo sapiens) (UniProt Q14289); conditions: Compound concentration 1000.0 nM
[11] = test system: Epidermal growth factor receptor (Homo sapiens), P00533 [G719C]; conditions: Compound concentration 1000.0 nM
[12] = target: D(4) dopamine receptor (Homo sapiens) (UniProt P21917); conditions: Compound concentration 10.0 uM
[13] = target: 3-phosphoinositide-dependent protein kinase 1 (Homo sapiens) (UniProt O15530); conditions: Compound concentration 1000.0 nM
[14] = target: BMP-2-inducible protein kinase (Homo sapiens) (UniProt Q9NSY1); conditions: Compound concentration 1000.0 nM
[15] = target: Dual specificity mitogen-activated protein kinase kinase 7 (Homo sapiens) (UniProt O14733); conditions: Compound concentration 1000.0 nM
[16] = target: Serine/threonine-protein kinase 4 (Homo sapiens) (UniProt Q13043); conditions: Compound concentration 1000.0 nM
[17] = test system: Receptor-type tyrosine-protein kinase FLT3 (Homo sapiens), P36888 [R834Q]; conditions: Compound concentration 1000.0 nM
[18] = target: Serine/threonine-protein kinase 17B (Homo sapiens) (UniProt O94768); conditions: Compound concentration 1000.0 nM
[19] = target: Cyclin-dependent kinase-like 3 (Homo sapiens) (UniProt Q8IVW4); conditions: Compound concentration 1000.0 nM
[20] = target: Mitogen-activated protein kinase kinase kinase kinase 1 (Homo sapiens) (UniProt Q92918); conditions: Compound concentration 1000.0 nM
[21] = target: Phosphatidylinositol 4-phosphate 5-kinase type-1 gamma (Homo sapiens) (UniProt O60331); conditions: Compound concentration 1000.0 nM
[22] = test system: Epidermal growth factor receptor (Homo sapiens), P00533 [UNDEFINED MUTATION]; conditions: Compound concentration 1000.0 nM
[23] = target: Mitogen-activated protein kinase 1 (Homo sapiens) (UniProt P28482); conditions: Compound concentration 1000.0 nM
[24] = target: Cyclin-dependent kinase 7 (Homo sapiens) (UniProt P50613); conditions: Compound concentration 1000.0 nM
[25] = target: Rho-associated protein kinase 2 (Homo sapiens) (UniProt O75116); conditions: Compound concentration 1000.0 nM
[26] = target: Dual specificity testis-specific protein kinase 1 (Homo sapiens) (UniProt Q15569); conditions: Compound concentration 1000.0 nM
[27] = target: Serine/threonine-protein kinase 38 (Homo sapiens) (UniProt Q15208); conditions: Compound concentration 1000.0 nM
[28] = target: Macrophage colony-stimulating factor 1 receptor (Homo sapiens) (UniProt P07333); conditions: Compound concentration 1000.0 nM
[29] = target: Tyrosine-protein kinase Fgr (Homo sapiens) (UniProt P09769); conditions: Compound concentration 1000.0 nM
[30] = target: MAP kinase-activated protein kinase 2 (Homo sapiens) (UniProt P49137); conditions: Compound concentration 1000.0 nM
[31] = target: Serine/threonine-protein kinase TBK1 (Homo sapiens) (UniProt Q9UHD2); conditions: Compound concentration 1000.0 nM
[32] = target: Mitogen-activated protein kinase kinase kinase 14 (Homo sapiens) (UniProt Q99558); conditions: Compound concentration 1000.0 nM
[33] = target: G protein-coupled receptor kinase 3 (Homo sapiens) (UniProt P35626); conditions: Compound concentration 1000.0 nM
[34] = target: High affinity nerve growth factor receptor (Homo sapiens) (UniProt P04629); conditions: Compound concentration 1000.0 nM
[35] = target: Serine/threonine-protein kinase 3 (Homo sapiens) (UniProt Q13188); conditions: Compound concentration 1000.0 nM
[36] = target: Serine/threonine-protein kinase MRCK gamma (Homo sapiens) (UniProt Q6DT37); conditions: Compound concentration 1000.0 nM
[37] = target: Proto-oncogene tyrosine-protein kinase Src (Homo sapiens) (UniProt P12931); conditions: Compound concentration 1000.0 nM
[38] = test system: Receptor-type tyrosine-protein kinase FLT3 (Homo sapiens), P36888 [D835V]; conditions: Compound concentration 1000.0 nM
[39] = target: Non-receptor tyrosine-protein kinase TYK2 (Homo sapiens) (UniProt P29597); conditions: Compound concentration 1000.0 nM
[40] = target: Serine/threonine-protein kinase 17A (Homo sapiens) (UniProt Q9UEE5); conditions: Compound concentration 1000.0 nM
[41] = target: Serine/threonine-protein kinase SIK1 (Homo sapiens) (UniProt P57059); conditions: Compound concentration 1000.0 nM
[42] = target: Dual specificity mitogen-activated protein kinase kinase 2 (Homo sapiens) (UniProt P36507); conditions: Compound concentration 1000.0 nM
[43] = target: Myosin-IIIa (Homo sapiens) (UniProt Q8NEV4); conditions: Compound concentration 1000.0 nM
[44] = target: Mitogen-activated protein kinase 3 (Homo sapiens) (UniProt P27361); conditions: Compound concentration 1000.0 nM
[45] = test system: Epidermal growth factor receptor (Homo sapiens), P00533 [L861Q]; conditions: Compound concentration 1000.0 nM

Sequence of Serine/threonine-protein kinase 38 (Homo sapiens) (Q15208 2-465 limits assumed): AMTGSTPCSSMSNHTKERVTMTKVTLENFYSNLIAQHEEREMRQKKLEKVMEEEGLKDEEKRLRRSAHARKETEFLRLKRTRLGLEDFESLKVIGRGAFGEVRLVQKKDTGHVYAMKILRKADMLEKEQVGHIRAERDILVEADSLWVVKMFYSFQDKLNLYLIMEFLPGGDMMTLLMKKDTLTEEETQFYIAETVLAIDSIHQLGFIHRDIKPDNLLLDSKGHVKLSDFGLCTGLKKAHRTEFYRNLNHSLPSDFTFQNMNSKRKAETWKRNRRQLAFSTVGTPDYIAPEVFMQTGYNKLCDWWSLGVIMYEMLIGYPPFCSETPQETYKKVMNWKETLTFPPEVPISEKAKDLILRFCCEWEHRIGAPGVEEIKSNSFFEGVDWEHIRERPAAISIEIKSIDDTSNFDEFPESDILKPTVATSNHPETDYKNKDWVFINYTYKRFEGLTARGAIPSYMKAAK
Sequence of Protein-tyrosine kinase 2-beta (Homo sapiens) (Q14289 whole entry, looked up): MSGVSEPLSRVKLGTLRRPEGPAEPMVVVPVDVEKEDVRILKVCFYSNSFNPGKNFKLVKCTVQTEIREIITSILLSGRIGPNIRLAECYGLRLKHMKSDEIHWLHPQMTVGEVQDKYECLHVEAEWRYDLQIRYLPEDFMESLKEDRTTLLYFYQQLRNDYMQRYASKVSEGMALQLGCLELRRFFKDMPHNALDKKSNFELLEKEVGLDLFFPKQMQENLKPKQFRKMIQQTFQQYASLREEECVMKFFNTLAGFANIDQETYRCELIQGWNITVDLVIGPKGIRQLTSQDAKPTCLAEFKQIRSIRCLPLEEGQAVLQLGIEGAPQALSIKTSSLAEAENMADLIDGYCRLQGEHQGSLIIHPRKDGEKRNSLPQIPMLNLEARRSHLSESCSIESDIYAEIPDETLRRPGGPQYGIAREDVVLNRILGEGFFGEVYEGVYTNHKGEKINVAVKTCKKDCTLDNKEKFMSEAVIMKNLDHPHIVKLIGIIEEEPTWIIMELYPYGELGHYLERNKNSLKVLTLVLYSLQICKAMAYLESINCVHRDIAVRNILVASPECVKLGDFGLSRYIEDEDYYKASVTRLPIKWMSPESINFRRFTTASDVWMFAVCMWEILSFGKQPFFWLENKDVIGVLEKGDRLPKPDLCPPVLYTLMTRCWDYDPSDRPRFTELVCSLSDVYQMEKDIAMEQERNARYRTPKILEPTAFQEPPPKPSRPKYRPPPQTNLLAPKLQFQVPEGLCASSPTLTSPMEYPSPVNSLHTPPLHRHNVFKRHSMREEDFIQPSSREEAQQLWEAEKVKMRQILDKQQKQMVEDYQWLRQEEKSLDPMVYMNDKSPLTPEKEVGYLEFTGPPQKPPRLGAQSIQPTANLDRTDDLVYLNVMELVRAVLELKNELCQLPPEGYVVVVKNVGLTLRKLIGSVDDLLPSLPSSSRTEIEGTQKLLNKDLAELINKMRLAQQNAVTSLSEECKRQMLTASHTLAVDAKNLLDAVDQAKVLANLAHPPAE
Sequence of Eukaryotic translation initiation factor 2-alpha kinase 1 (Homo sapiens) (Q9BQI3 whole entry): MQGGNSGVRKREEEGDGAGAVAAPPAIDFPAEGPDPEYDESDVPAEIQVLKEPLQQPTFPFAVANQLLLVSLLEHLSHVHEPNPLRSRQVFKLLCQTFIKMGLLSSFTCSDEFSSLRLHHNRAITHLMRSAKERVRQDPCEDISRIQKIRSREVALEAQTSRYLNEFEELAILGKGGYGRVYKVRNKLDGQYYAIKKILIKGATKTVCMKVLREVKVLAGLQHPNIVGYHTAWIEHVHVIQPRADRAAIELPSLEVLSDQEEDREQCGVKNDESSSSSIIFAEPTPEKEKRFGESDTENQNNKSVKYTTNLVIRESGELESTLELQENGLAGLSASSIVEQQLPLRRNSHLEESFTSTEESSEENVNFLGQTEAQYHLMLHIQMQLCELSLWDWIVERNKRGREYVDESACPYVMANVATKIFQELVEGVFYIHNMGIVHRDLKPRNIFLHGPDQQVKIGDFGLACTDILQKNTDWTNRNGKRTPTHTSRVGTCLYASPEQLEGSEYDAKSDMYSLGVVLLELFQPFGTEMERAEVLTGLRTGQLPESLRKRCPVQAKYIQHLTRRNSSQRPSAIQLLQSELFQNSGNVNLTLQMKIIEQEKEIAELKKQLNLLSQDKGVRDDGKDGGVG
Sequence of Dual specificity mitogen-activated protein kinase kinase 2 (Homo sapiens) (P36507 whole entry): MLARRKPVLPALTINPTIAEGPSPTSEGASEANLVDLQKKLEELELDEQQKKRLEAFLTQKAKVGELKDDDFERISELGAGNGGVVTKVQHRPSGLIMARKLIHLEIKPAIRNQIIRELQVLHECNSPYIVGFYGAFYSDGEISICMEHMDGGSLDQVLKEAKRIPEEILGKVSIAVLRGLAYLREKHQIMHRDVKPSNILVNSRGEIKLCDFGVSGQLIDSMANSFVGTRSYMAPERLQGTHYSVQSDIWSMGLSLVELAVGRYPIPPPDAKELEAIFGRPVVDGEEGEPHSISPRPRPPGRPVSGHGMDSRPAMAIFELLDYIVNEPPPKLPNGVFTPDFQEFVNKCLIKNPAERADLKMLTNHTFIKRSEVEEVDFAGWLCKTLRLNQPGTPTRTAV
Sequence of Proto-oncogene tyrosine-protein kinase Src (Homo sapiens) (P12931 2-536 limits assumed): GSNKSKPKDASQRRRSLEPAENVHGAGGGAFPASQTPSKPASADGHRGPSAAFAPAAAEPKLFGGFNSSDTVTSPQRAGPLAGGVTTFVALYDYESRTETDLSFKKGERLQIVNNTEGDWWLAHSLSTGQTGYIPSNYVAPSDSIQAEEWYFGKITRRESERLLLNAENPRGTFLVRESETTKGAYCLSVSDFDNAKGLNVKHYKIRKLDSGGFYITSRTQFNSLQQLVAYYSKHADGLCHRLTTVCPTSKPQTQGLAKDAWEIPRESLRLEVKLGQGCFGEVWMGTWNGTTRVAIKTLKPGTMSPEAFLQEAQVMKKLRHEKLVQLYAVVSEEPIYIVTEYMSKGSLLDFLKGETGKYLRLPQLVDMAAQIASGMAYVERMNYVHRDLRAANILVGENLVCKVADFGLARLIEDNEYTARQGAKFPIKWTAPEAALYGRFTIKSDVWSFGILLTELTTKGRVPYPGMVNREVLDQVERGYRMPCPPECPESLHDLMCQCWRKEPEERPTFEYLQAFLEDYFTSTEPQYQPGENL
Sequence of Cyclin-dependent kinase-like 3 (Homo sapiens) (Q8IVW4 whole entry, looked up): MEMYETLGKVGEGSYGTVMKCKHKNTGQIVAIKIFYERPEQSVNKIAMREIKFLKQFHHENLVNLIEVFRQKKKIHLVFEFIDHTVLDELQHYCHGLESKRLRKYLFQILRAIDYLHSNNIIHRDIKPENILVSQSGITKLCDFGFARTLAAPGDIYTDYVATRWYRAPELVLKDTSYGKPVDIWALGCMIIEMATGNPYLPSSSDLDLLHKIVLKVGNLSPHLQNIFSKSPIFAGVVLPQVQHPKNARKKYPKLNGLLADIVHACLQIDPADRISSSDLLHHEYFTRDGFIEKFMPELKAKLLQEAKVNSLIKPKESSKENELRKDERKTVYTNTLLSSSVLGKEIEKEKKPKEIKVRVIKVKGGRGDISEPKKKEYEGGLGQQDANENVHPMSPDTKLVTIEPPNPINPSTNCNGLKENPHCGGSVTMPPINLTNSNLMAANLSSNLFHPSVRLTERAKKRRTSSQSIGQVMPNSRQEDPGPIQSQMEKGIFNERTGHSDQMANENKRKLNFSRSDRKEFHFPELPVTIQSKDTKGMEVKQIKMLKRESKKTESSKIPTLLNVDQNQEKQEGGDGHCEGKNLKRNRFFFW
Sequence of G protein-coupled receptor kinase 3 (Homo sapiens) (P35626 whole entry): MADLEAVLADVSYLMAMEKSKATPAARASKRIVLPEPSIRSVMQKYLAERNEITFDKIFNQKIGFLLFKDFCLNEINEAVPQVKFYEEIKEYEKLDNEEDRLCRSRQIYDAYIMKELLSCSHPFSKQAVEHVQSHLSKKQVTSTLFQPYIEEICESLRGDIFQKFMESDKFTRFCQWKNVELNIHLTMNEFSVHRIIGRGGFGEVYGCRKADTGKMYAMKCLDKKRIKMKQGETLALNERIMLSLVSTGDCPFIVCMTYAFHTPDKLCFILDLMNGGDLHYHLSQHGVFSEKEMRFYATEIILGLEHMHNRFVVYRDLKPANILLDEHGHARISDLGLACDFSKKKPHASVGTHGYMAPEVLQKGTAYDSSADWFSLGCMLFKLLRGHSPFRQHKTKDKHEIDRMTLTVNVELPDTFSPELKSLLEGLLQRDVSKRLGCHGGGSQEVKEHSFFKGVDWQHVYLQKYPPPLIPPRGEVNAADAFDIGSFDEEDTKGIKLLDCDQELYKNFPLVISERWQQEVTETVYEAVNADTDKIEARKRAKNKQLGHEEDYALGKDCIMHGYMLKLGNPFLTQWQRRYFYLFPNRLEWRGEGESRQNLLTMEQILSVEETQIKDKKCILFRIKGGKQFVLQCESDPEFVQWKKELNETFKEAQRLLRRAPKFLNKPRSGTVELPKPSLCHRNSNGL
Sequence of Cyclin-dependent kinase 7 (Homo sapiens) (P50613 whole entry): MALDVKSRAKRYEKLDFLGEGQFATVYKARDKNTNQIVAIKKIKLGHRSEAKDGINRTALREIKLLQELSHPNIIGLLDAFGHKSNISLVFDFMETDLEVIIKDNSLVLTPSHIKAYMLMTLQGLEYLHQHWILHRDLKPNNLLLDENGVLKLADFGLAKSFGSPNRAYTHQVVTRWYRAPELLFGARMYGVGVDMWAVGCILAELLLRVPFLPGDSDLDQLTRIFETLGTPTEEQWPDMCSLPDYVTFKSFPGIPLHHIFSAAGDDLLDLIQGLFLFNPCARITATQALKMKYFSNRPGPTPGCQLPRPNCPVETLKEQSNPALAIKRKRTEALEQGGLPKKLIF
Sequence of Mitogen-activated protein kinase 1 (Homo sapiens) (P28482 whole entry): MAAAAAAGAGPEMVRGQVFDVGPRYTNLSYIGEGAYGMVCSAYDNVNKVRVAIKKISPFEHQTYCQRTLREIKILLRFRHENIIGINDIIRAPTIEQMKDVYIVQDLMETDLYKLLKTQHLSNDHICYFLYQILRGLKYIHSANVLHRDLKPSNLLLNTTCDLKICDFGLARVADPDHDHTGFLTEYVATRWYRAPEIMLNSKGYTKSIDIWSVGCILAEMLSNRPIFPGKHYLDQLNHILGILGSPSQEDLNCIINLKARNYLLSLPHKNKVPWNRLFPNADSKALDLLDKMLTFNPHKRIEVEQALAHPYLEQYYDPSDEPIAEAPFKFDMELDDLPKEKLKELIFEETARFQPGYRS

Cc1c(NC(=O)c2cc(C(N)=O)nc3cc(F)ccc23)c(C(F)(F)F)nn1Cc1ccc(C(C)(C)C)cc1 [BAY-588]
inactive: residual activity [1] 100% | residual activity [2] 100% | residual activity [3] 100% | residual activity [4] 100% | residual activity [5] 100% | residual activity [6] 100% | residual activity [7] 94% | residual activity [8] 100% | residual activity [9] 88% | residual activity [10] 92% | residual activity [11] 71% | inhibition [12] 4.93% | residual activity [13] 94% | residual activity [14] 100% | residual activity [15] 100% | residual activity [16] 95% | residual activity [17] 100% | residual activity [18] 100% | residual activity [19] 87% | residual activity [20] 100% | residual activity [21] 78% | residual activity [22] 100% | residual activity [23] 71% | residual activity [24] 100% | residual activity [25] 100% | residual activity [26] 100% | residual activity [27] 93% | residual activity [28] 100% | residual activity [29] 96% | residual activity [30] 100% | residual activity [31] 95% | residual activity [32] 100% | residual activity [33] 100% | residual activity [34] 89% | residual activity [35] 90% | residual activity [36] 91% | residual activity [37] 100% | residual activity [38] 100% | residual activity [39] 100% | residual activity [40] 79% | residual activity [41] 87% | residual activity [42] 100% | residual activity [43] 100% | residual activity [44] 100% | residual activity [45] 65%

Cc1c(NC(=O)c2cc(C(N)=O)nc3cc(F)ccc23)c(C(F)(F)F)nn1Cc1ccc(C#N)cc1 [BAY-876]
inactive: residual activity [1] 89% | residual activity [2] 86% | residual activity [3] 66% | residual activity [4] 100% | residual activity [5] 66% | residual activity [6] 88% | residual activity [7] 83% | residual activity [8] 84% | residual activity [9] 100% | residual activity [10] 95% | residual activity [11] 83% | inhibition [12] 15.1% | residual activity [13] 73% | residual activity [14] 96% | residual activity [15] 79% | residual activity [16] 84% | residual activity [17] 83% | residual activity [18] 72% | residual activity [19] 80% | residual activity [20] 100% | residual activity [21] 94% | residual activity [22] 91% | residual activity [23] 100% | residual activity [24] 52% | residual activity [25] 99% | residual activity [26] 93% | residual activity [27] 94% | residual activity [28] 100% | residual activity [29] 93% | residual activity [30] 97% | residual activity [31] 70% | residual activity [32] 72% | residual activity [33] 89% | residual activity [34] 83% | residual activity [35] 96% | residual activity [36] 91% | residual activity [37] 81% | residual activity [38] 100% | residual activity [39] 83% | residual activity [40] 90% | residual activity [41] 100% | residual activity [42] 89% | residual activity [43] 91% | residual activity [44] 85% | residual activity [45] 67%
